Patent US20220233661A1, “METHOD OF DETERMINING ELIGIBILITY OF CANCER PATIENT FOR PEPTIDE VACCINE THERAPY” (priority 2019, published 2022)

Legend:
[1] = system: anti-peptide IgG in plasma; test: Test Example 4: peptide-specific IgG titer pre and post vaccination, bead-based multiplexed Luminex assay; format: in vivo, human; conditions: for Pre-vaccination IgG Negative (number of patients) / Pre-vaccination IgG Positive (number of patients): cut off 10 FIU; for Post vaccination IgG: number of (positive) patients among vaccinated: positive IgG response; for Pre-vaccination IgG Negative patients: number of 2,588 patients below 10 FIU; for Pre-vaccination IgG Positive patients: number of 2,588 patients with ≥10 FIU; for Post vaccination IgG: (positive) patients: number of vaccinated patients with positive IgG response; for Correlation between immune responses and OS: Negative (mOS): patients with negative post-vaccination IgG response to the peptide; for Correlation between immune responses and OS: Positive (mOS): patients with positive post-vaccination IgG response to the peptide
Outline: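 Plasma taken before vaccination and at the end of the first and second cycles; incubated with peptide-coupled beads 2 hours at 25° C., then biotinylated anti-human IgG (gamma chain-specific) and streptavidin-PE. Bead FIU read by Luminex; positivity cutoff 10 FIU in 100-fold diluted samples.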

cancer patients = test: Test Example 4: correlation between vaccination with individual peptides (or peptide sets) and OS, Cox proportional hazards regression; format: in vivo, human; conditions: for HR: Cox proportional hazards regression, OS; for Correlation between immune responses and OS: Negative (mOS) / Correlation between immune responses and OS: Positive (mOS): Table 20, <64% neutrophil and ≥26% lymphocyte; for Correlation between immune responses and OS: Negative (mOS): vaccinated patients with negative IgG response; for Correlation between immune responses and OS: Positive (mOS): vaccinated patients with positive IgG response
Outline: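 Univariate and multivariate Cox proportional hazards regression of each of 31 vaccine peptides against OS (enrollment to death or last contact), giving HR with 95% CI; also run separately in 2,085 advanced (stage IV+recurrence) and 503 stage I-III patients. Two-sided p<0.05 considered significant.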

[2] = Table 20, patients showing both <64% neutrophil and ≥26% lymphocyte
[3] = patients showing detectable levels
[4] = patients showing positive responses
[5] = Table 18, all 2,588 cases, vaccinated vs non-vaccinated
[6] = Table 18, all 2,588 cases, median OS of patients under PPV containing the peptide
[7] = Table 18, all 2,588 cases, median OS of patients under PPV not containing the peptide
[8] = Table 19, 2,085 advanced cancer patients (stage IV+recurrence)
[9] = Table 19, 2,085 advanced cancer patients (stage IV+recurrence), PPV containing the peptide
[10] = Table 19, 2,085 advanced cancer patients (stage IV+recurrence), PPV not containing the peptide
[11] = Table 21, patients showing both <64% neutrophil and ≥26% lymphocyte
[12] = Table 21, patients showing both <64% neutrophil and ≥26% lymphocyte, PPV containing the peptide
[13] = Table 21, patients showing both <64% neutrophil and ≥26% lymphocyte, PPV not containing the peptide
[14] = 2,085 advanced cancer patients (stage IV+recurrence)

Sequence | Post vaccination IgG Median (FIU) [1, 2] | Pre-vaccination IgG Median (FIU) [1, 2] [FIU] | Pre-vaccination IgG Negative (number of patients) [1, 2] | Pre-vaccination IgG Positive (number of patients) [1, 2] | Post vaccination IgG: number of (positive) patients among vaccinated [1, 2] | Pre-vaccination IgG Negative patients [1] | Pre-vaccination IgG Positive patients [1] | Post vaccination IgG: (positive) patients [1] | Pre-vaccination IgG Median (FIU) [1, 3] [FIU] | Post vaccination IgG Median (FIU) [1, 4] | Correlation between immune responses and OS: Negative (mOS) [1] [months] | Correlation between immune responses and OS: Positive (mOS) [1] [months] | HR (cancer patients; [5]) | Vaccinate cases (mOS) (cancer patients; [6]) | Non-vaccinate cases (mOS) (cancer patients; [7]) | HR (cancer patients; [8]) | Vaccinate cases (mOS) (cancer patients; [9]) | Non-vaccinate cases (mOS) (cancer patients; [10]) | Correlation between immune responses and OS: Negative (mOS) (cancer patients) [months] | Correlation between immune responses and OS: Positive (mOS) (cancer patients) [months] | also measured
NYSVRYRPGL (listed as Homo sapiens) [MRP3-1293] | 6,491 FIU | 27 | 423 | 643 | 132(83) | 1,030 | 1,558 | 324(157) | 27 | 6,003 FIU | 8.6 | 20.6 | 1.1 | 324(11.9) M | 1,226(12.1) M | 1.0 | 253(10.5) M | 993(10.4) M | 12.6 | 24.3 | HR (cancer patients; [11]): 1.0; Vaccinate cases (mOS) (cancer patients; [12]): 132(17.5) M; Non-vaccinate cases (mOS) (cancer patients; [13]): 493(18.4) M
RYLTQETNKV (listed as Homo sapiens) [PTHrP-102] | 5,336 FIU | 27 | 710 | 356 | 91(51) | 1,702 | 886 | 204(99) | 27 | 1,423 FIU | 11.4 | 20.0 | 0.9 | 204(13.3) M | 1,346(11.9) M | 0.9 | 168(11.8) M | 1078(10.3) M | 13.9 | 39 | HR (cancer patients; [11]): 0.9; Vaccinate cases (mOS) (cancer patients; [12]): 91(21.2) M; Non-vaccinate cases (mOS) (cancer patients; [13]): 534(18.0) M
HYTNASDGL (listed as Homo sapiens) [Lck-208] | 9,551 FIU | 31 | 839 | 227 | 69(36) | 2,028 | 560 | 134(64) | 30 | 4,597 FIU | 16.0 | 30.5 | 0.9 | 134(19.7) M | 1,416(11.4) M | 0.7 | 103(17.1) M | 1143(10.0) M | 19.9 | 34 | median OS of non-vaccinated cases (cancer patients; [14]): 10 months; median OS of vaccinated cases (cancer patients; [14]): 17.1 months; HR (cancer patients; [11]): 0.7; Vaccinate cases (mOS) (cancer patients; [12]): 69(26.7) M; Non-vaccinate cases (mOS) (cancer patients; [13]): 556(17.6) M
GIHKQKEKSR (listed as Homo sapiens) [PAP-248] | 1,981 FIU | 38 | 543 | 523 | 64(31) | 1,302 | 1,286 | 147(62) | 37 | 2,136 FIU | 9.9 | 21.1 | 1.0 | 147(11.4) M | 1,067(11.1) M | 0.8 | 124(10.1) M | 845(9.9) M | 13 | 21.3 | median OS of patients with the peptide vs patients without it (cancer patients; 1,066 patients with <64% neutrophil and ≥26% lymphocyte): shorter; HR (cancer patients; [11]): 1.1; Vaccinate cases (mOS) (cancer patients; [12]): 64(15.5) M; Non-vaccinate cases (mOS) (cancer patients; [13]): 443(17.6) M
TFDYLRSVL (listed as Homo sapiens) [Lck-486] | 17,613 FIU | 40 | 167 | 899 | 356(274) | 404 | 2,184 | 879(573) | 42 | 15,147 FIU | 7.2 | 19.4 | 0.9 | 879(12.3) M | 671(11.3) M | 0.9 | 709(11.1) M | 537(9.6) M | 11.4 | 25.2 | median OS of non-vaccinated cases (cancer patients; [14]): 9.6 months; median OS of vaccinated cases (cancer patients; [14]): 11.1 months; HR (cancer patients; [11]): 0.9; Vaccinate cases (mOS) (cancer patients; [12]): 356(19.1) M; Non-vaccinate cases (mOS) (cancer patients; [13]): 269(17.6) M; median OS of vaccinated cases (cancer patients; all 2,588 cases, PPV containing the peptide): 12.3 months; median OS of non-vaccinated cases (cancer patients; all 2,588 cases, PPV not containing the peptide): 11.3 months
LLQAEAPRL (listed as Homo sapiens) [SART3-302] | 17,719 FIU | 84 | 375 | 691 | 173(138) | 948 | 1,640 | 408(271) | 84 | 14,958 FIU | 9.1 | 18.2 | 0.9 | 408(12.7) M | 642(10.5) M | 0.9 | 328(11.4) M | 534(9.8) M | 10.8 | 21.2 | HR (cancer patients; [11]): 0.9; Vaccinate cases (mOS) (cancer patients; [12]): 173(18.1) M; Non-vaccinate cases (mOS) (cancer patients; [13]): 261(16.3) M
